# Patent US7067146B2, “Food compositions and methods of preparing the same” (Eritocap Oy, priority 1999, dated 2006)
# Columns and labels:
# Solubility = format: physicochemical
# [1] = tested on: cholesterol in blood serum; conditions: Merck Index, 12th Edition; cited from earlier work
# SAH hydrolase = SAH hydrolase (Homo sapiens, UniProt P23526)
# Excerpt: It is possible to achieve favourable changes in the blood plasma cholesterol pattern by reducing the molar ratio of total cholesterol/phospholipid ratio and/or changing the phospolipid molar ratio of PC/PE and/or inhibiting enzymatically controlled reactions where PC and PE is directly or indirectly via the SAM/SAH cycle involved. The following theory has been formulated: • Step 1: Total PL and PL (phospholipids) composition may be changed by kinetics of the SAM and SAH cycle. • Step 2: SAM and SAH concentrations are inhibited/stimulated by intervening in the methionine and cysteine metabolism • Step 3: In this metabolism SAH degradation to adenosine and homocysteine is an enzymatic reaction catalysed by SAH hydrolase. By inhibiting partially, not totally, SAH hydrolase, the concentration of SAH will rise affecting the SAM/SAH ratio and step 1 will be executed.
# Eritadenine has been tested for use in the above model.
# [2] = tested on: cholesterol in blood serum; test: Blood serum cholesterol reduction by eritadenine; format: in vivo, human
# Excerpt: As regards the therapeutic action of eritadenine it should be noted that it acts endogenously in a dose-dependent manner and can be used as a functional food component in small doses for reducing the total cholesterol of normal human beings. By contrast, existing methods provide for food components having an exogenous effect on the cholesterol balance and these dietary components therefore have to be used in extremely large doses in comparison to eritadenine. […] The present invention makes it possible to produce a functional food component which acts in a druglike manner influencing human phospholipidic metabolic step sequences, still preserving the true features of a functional food component. As mentioned above, eritadenine has the additive effects of not only dose-dependent, endogenous cholesterol-depression but also therapeutic effects like endogenous linoleic acid formation and blood plasma viscosity reduction.
# It acts in a drug-like manner, inhibiting the endogenous synthesis of cholesterol metabolism and the enterohepatic fat circle. d-eritadenine is effective in very low absorbed doses, at 1 ppm+-level, ensuring safety and essential metabolic step preservation.
# Thus, the addition of eritadenine, especially d-eritadenine, to an exogenously acting existing functional food will more than double the cholesterol-depressing effect due to enterohepatic and exterohepatic multiplicatory effects. Mathematically consecutive 10% reductions would give […] total reduction, and consecutive 15% reductions would give 28% total reduction, by the present invention, due to the feedback inhibition created by the simultaneous exogenous and endogenous actions of the food components, a greater decrease of the cholesterol level will be achieved. The food compositions according to the present invention may therefore comprise a (conventional) food component having an exterohepatic cholesterol depressing effect. Such a food component can be selected from the group of fibers, chitosan, tocotrienols, plant sterols, stanol esters and sitostanol esters. […]
# Chain of SAH hydrolase (P23526 whole entry): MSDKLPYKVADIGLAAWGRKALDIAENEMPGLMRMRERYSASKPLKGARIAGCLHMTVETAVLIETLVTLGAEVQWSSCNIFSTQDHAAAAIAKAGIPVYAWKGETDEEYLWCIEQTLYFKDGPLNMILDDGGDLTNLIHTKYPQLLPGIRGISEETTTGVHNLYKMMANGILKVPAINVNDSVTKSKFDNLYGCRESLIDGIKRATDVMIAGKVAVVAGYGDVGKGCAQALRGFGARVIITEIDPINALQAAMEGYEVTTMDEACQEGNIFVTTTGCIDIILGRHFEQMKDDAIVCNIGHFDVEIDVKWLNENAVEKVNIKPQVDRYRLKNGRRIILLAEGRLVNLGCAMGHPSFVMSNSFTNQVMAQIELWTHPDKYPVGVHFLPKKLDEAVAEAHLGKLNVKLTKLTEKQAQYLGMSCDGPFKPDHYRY
Structure (SMILES),solubility in fats (Solubility),effect on concentration of cholesterol in blood serum [1],dose needed for SAH hydrolase inhibition (SAH hydrolase),extent of SAH hydrolase inhibition (SAH hydrolase),speed of SAH hydrolase inhibition (SAH hydrolase),"reduction of cholesterol ([2]; 5 to 50 mg as dose response, depending on the dietary cholesterol amount)",effective absorbed dose level ([2]; absorbed dose),"relative efficiency among eritadenine isomers ([2]; compared with l-eritadenine (2S,3S) and threo isomers)"
Nc1ncnc2c1ncn2C[C@@H](O)[C@@H](O)C(=O)O [Eritadenine],soluble in fats,capable of reducing the concentration of cholesterol in blood serum,,,,,,
"Nc1ncnc2c1ncn2C[C@@H](O)[C@@H](O)C(=O)O [d-eritadenine, 2(R), 3(R)-dihydroxy-4-(9-adenyl)butyric acid]",,,inhibits already in small doses,"inhibits partially, no total blocking",rapid,> 20%,≥ 1 ppm,most efficient
